# Reference: the supplement of paper PMC10307832
# Tests used:
# Experiment in all cases: relative viability (nuclei count vs DMSO), 5 days (fraction); higher = more cells survive
# Everolimus = compound: CO[C@H]1C[C@@H]2CC[C@@H](C)[C@@](O)(O2)C(=O)C(=O)N2CCCC[C@H]2C(=O)O[C@H]([C@H](C)C[C@@H]2CC[C@@H](OCCO)[C@H](OC)C2)CC(=O)[C@H](C)/C=C(\C)[C@@H](O)[C@@H](OC)C(=O)[C@H](C)C[C@H](C)/C=C/C=C/C=C/1C [Everolimus]
# How it was run: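 Five library-drug doses, separated by factors of √10, were pinned into 1536-well plates holding lung cancer cell lines after an overnight stay at 37 °C. Cells were fixed, permeabilised and Hoechst-stained in one step after 5 days without medium change, then imaged at 4×. Viability compares treated-well with vehicle-well nuclei, counted in MetaXpress, as a median across plates. Passing plates had control CV below 25% and at least one doubling.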
# Everolimus + OSI-027 = compound: CO[C@H]1C[C@@H]2CC[C@@H](C)[C@@](O)(O2)C(=O)C(=O)N2CCCC[C@H]2C(=O)O[C@H]([C@H](C)C[C@@H]2CC[C@@H](OCCO)[C@H](OC)C2)CC(=O)[C@H](C)/C=C(\C)[C@@H](O)[C@@H](OC)C(=O)[C@H](C)C[C@H](C)/C=C/C=C/C=C/1C [Everolimus] + COc1cccc2cc(-c3nc([C@H]4CC[C@H](C(=O)O)CC4)n4ncnc(N)c34)[nH]c12 [OSI-027] (partner 0.5 µM)
# How it was run: (§1)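 Lung cancer cell lines in 1536-well plates were dosed by pin tool the day after seeding, either with one drug alone or with a fixed anchor-drug dose plus five library-drug doses (not always all listed) in √10 steps. After 5 days, cells were fixed and their nuclei stained in one step (final 0.05% Triton X-100, 1% formaldehyde, 1 ug/ml Hoechst), then counted on 4× images. Relative viability is the nuclei count in treated wells divided by that in vehicle wells. Values are medians of duplicate plates.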
# Everolimus + Phenformin = compound: CO[C@H]1C[C@@H]2CC[C@@H](C)[C@@](O)(O2)C(=O)C(=O)N2CCCC[C@H]2C(=O)O[C@H]([C@H](C)C[C@@H]2CC[C@@H](OCCO)[C@H](OC)C2)CC(=O)[C@H](C)/C=C(\C)[C@@H](O)[C@@H](OC)C(=O)[C@H](C)C[C@H](C)/C=C/C=C/C=C/1C [Everolimus] + N=C(N)NC(=N)NCCc1ccccc1 [Phenformin] (partner 250 µM)
# How it was run: as §1
# Everolimus + Trametinib = compound: CO[C@H]1C[C@@H]2CC[C@@H](C)[C@@](O)(O2)C(=O)C(=O)N2CCCC[C@H]2C(=O)O[C@H]([C@H](C)C[C@@H]2CC[C@@H](OCCO)[C@H](OC)C2)CC(=O)[C@H](C)/C=C(\C)[C@@H](O)[C@@H](OC)C(=O)[C@H](C)C[C@H](C)/C=C/C=C/C=C/1C [Everolimus] + CC(=O)Nc1cccc(-n2c(=O)n(C3CC3)c(=O)c3c(Nc4ccc(I)cc4F)n(C)c(=O)c(C)c32)c1 [Trametinib] (partner 0.02 µM)
# How it was run: as §1
cell line,measurement,setting,value
LC-2-ad,relative viability,Everolimus; 0.01 µM,0.932
same,relative viability,Everolimus; 0.03162 µM,1.03
same,relative viability,Everolimus; 0.1 µM,0.89
same,relative viability,Everolimus; 0.3162 µM,0.958
same,relative viability,Everolimus; 1 µM,0.9
same,relative viability,Everolimus + OSI-027; first compound 0.01 µM,0.669
same,relative viability,Everolimus + OSI-027; first compound 0.03162 µM,0.7
same,relative viability,Everolimus + OSI-027; first compound 0.1 µM,0.602
same,relative viability,Everolimus + OSI-027; first compound 0.3162 µM,0.618
same,relative viability,Everolimus + OSI-027; first compound 1 µM,0.569
same,relative viability,Everolimus + Phenformin; first compound 0.01 µM,0.54
same,relative viability,Everolimus + Phenformin; first compound 0.03162 µM,0.502
same,relative viability,Everolimus + Phenformin; first compound 0.1 µM,0.54
same,relative viability,Everolimus + Phenformin; first compound 0.3162 µM,0.516
same,relative viability,Everolimus + Phenformin; first compound 1 µM,0.491
same,relative viability,Everolimus + Trametinib; first compound 0.01 µM,0.961
same,relative viability,Everolimus + Trametinib; first compound 0.03162 µM,0.957
same,relative viability,Everolimus + Trametinib; first compound 0.1 µM,0.948
same,relative viability,Everolimus + Trametinib; first compound 0.3162 µM,0.964
same,relative viability,Everolimus + Trametinib; first compound 1 µM,0.891
LCLC-97TM1,relative viability,Everolimus; 0.01 µM,0.771
same,relative viability,Everolimus; 0.03162 µM,0.82
same,relative viability,Everolimus; 0.1 µM,0.709
same,relative viability,Everolimus; 0.3162 µM,0.892
same,relative viability,Everolimus; 1 µM,0.775
same,relative viability,Everolimus + OSI-027; first compound 0.01 µM,0.455
same,relative viability,Everolimus + OSI-027; first compound 0.03162 µM,0.362
same,relative viability,Everolimus + OSI-027; first compound 0.1 µM,0.36
same,relative viability,Everolimus + OSI-027; first compound 0.3162 µM,0.337
same,relative viability,Everolimus + OSI-027; first compound 1 µM,0.458
same,relative viability,Everolimus + Phenformin; first compound 0.01 µM,0.46
same,relative viability,Everolimus + Phenformin; first compound 0.03162 µM,0.513
same,relative viability,Everolimus + Phenformin; first compound 0.1 µM,0.483
same,relative viability,Everolimus + Phenformin; first compound 0.3162 µM,0.353
same,relative viability,Everolimus + Phenformin; first compound 1 µM,0.437
same,relative viability,Everolimus + Trametinib; first compound 0.01 µM,0.153
same,relative viability,Everolimus + Trametinib; first compound 0.03162 µM,0.164
same,relative viability,Everolimus + Trametinib; first compound 0.1 µM,0.126
same,relative viability,Everolimus + Trametinib; first compound 0.3162 µM,0.155
same,relative viability,Everolimus + Trametinib; first compound 1 µM,0.147
LCLC-103H,relative viability,Everolimus; 0.01 µM,0.977
same,relative viability,Everolimus; 0.03162 µM,0.969
same,relative viability,Everolimus; 0.1 µM,0.834
same,relative viability,Everolimus; 0.3162 µM,0.922
same,relative viability,Everolimus; 1 µM,0.871
same,relative viability,Everolimus + OSI-027; first compound 0.01 µM,0.347
same,relative viability,Everolimus + OSI-027; first compound 0.03162 µM,0.385
same,relative viability,Everolimus + OSI-027; first compound 0.1 µM,0.402
same,relative viability,Everolimus + OSI-027; first compound 0.3162 µM,0.367
same,relative viability,Everolimus + OSI-027; first compound 1 µM,0.366
same,relative viability,Everolimus + Phenformin; first compound 0.01 µM,0.309
same,relative viability,Everolimus + Phenformin; first compound 0.03162 µM,0.274
same,relative viability,Everolimus + Phenformin; first compound 0.1 µM,0.294
same,relative viability,Everolimus + Phenformin; first compound 0.3162 µM,0.309
same,relative viability,Everolimus + Phenformin; first compound 1 µM,0.331
same,relative viability,Everolimus + Trametinib; first compound 0.01 µM,0.605
same,relative viability,Everolimus + Trametinib; first compound 0.03162 µM,0.659
same,relative viability,Everolimus + Trametinib; first compound 0.1 µM,0.661
same,relative viability,Everolimus + Trametinib; first compound 0.3162 µM,0.601
same,relative viability,Everolimus + Trametinib; first compound 1 µM,0.591
LK-2,relative viability,Everolimus; 0.01 µM,0.844
same,relative viability,Everolimus; 0.03162 µM,0.554
same,relative viability,Everolimus; 0.1 µM,0.546
same,relative viability,Everolimus; 0.3162 µM,0.491
same,relative viability,Everolimus; 1 µM,0.487
same,relative viability,Everolimus + OSI-027; first compound 0.01 µM,0.152
same,relative viability,Everolimus + OSI-027; first compound 0.03162 µM,0.153
same,relative viability,Everolimus + OSI-027; first compound 0.1 µM,0.167
same,relative viability,Everolimus + OSI-027; first compound 0.3162 µM,0.162
same,relative viability,Everolimus + OSI-027; first compound 1 µM,0.172
same,relative viability,Everolimus + Phenformin; first compound 0.01 µM,0.299
same,relative viability,Everolimus + Phenformin; first compound 0.1 µM,0.154
same,relative viability,Everolimus + Phenformin; first compound 0.3162 µM,0.166
same,relative viability,Everolimus + Phenformin; first compound 1 µM,0.233
same,relative viability,Everolimus + Trametinib; first compound 0.01 µM,0.688
same,relative viability,Everolimus + Trametinib; first compound 0.03162 µM,0.468
same,relative viability,Everolimus + Trametinib; first compound 0.1 µM,0.425
same,relative viability,Everolimus + Trametinib; first compound 0.3162 µM,0.421
same,relative viability,Everolimus + Trametinib; first compound 1 µM,0.438
LOU-NH91,relative viability,Everolimus; 0.01 µM,0.823
same,relative viability,Everolimus; 0.03162 µM,0.799
same,relative viability,Everolimus; 0.1 µM,0.798
same,relative viability,Everolimus; 0.3162 µM,0.789
same,relative viability,Everolimus; 1 µM,0.773
same,relative viability,Everolimus + OSI-027; first compound 0.01 µM,0.529
same,relative viability,Everolimus + OSI-027; first compound 0.03162 µM,0.57
same,relative viability,Everolimus + OSI-027; first compound 0.1 µM,0.531
same,relative viability,Everolimus + OSI-027; first compound 0.3162 µM,0.524
same,relative viability,Everolimus + OSI-027; first compound 1 µM,0.516
same,relative viability,Everolimus + Phenformin; first compound 0.01 µM,0.636
same,relative viability,Everolimus + Phenformin; first compound 0.03162 µM,0.596
same,relative viability,Everolimus + Phenformin; first compound 0.1 µM,0.609
same,relative viability,Everolimus + Phenformin; first compound 0.3162 µM,0.541
same,relative viability,Everolimus + Phenformin; first compound 1 µM,0.584
same,relative viability,Everolimus + Trametinib; first compound 0.01 µM,0.626
same,relative viability,Everolimus + Trametinib; first compound 0.03162 µM,0.695
same,relative viability,Everolimus + Trametinib; first compound 0.1 µM,0.667
same,relative viability,Everolimus + Trametinib; first compound 0.3162 µM,0.612
same,relative viability,Everolimus + Trametinib; first compound 1 µM,0.623
NCI-H1299,relative viability,Everolimus; 0.01 µM,0.969
same,relative viability,Everolimus; 0.03162 µM,0.98
same,relative viability,Everolimus; 0.1 µM,1.01
same,relative viability,Everolimus; 0.3162 µM,0.974
same,relative viability,Everolimus; 1 µM,1.04
NCI-H1563,relative viability,Everolimus; 0.01 µM,0.767
same,relative viability,Everolimus; 0.03162 µM,0.761
same,relative viability,Everolimus; 0.1 µM,0.715
same,relative viability,Everolimus; 0.3162 µM,0.728
same,relative viability,Everolimus; 1 µM,0.676
same,relative viability,Everolimus + OSI-027; first compound 0.01 µM,0.628
same,relative viability,Everolimus + OSI-027; first compound 0.03162 µM,0.645
same,relative viability,Everolimus + OSI-027; first compound 0.1 µM,0.622
same,relative viability,Everolimus + OSI-027; first compound 0.3162 µM,0.693
same,relative viability,Everolimus + OSI-027; first compound 1 µM,0.643
same,relative viability,Everolimus + Phenformin; first compound 0.01 µM,0.658
same,relative viability,Everolimus + Phenformin; first compound 0.03162 µM,0.661
same,relative viability,Everolimus + Phenformin; first compound 0.1 µM,0.657
same,relative viability,Everolimus + Phenformin; first compound 0.3162 µM,0.657
same,relative viability,Everolimus + Phenformin; first compound 1 µM,0.592
NCI-H1648,relative viability,Everolimus; 0.01 µM,0.646
same,relative viability,Everolimus; 0.03162 µM,0.778
same,relative viability,Everolimus; 0.1 µM,0.718
same,relative viability,Everolimus; 0.3162 µM,0.596
same,relative viability,Everolimus; 1 µM,0.654
same,relative viability,Everolimus + OSI-027; first compound 0.01 µM,0.247
same,relative viability,Everolimus + OSI-027; first compound 0.03162 µM,0.252
same,relative viability,Everolimus + OSI-027; first compound 0.1 µM,0.268
same,relative viability,Everolimus + OSI-027; first compound 0.3162 µM,0.281
same,relative viability,Everolimus + OSI-027; first compound 1 µM,0.257
same,relative viability,Everolimus + Trametinib; first compound 0.01 µM,0.388
same,relative viability,Everolimus + Trametinib; first compound 0.03162 µM,0.435
same,relative viability,Everolimus + Trametinib; first compound 0.1 µM,0.395
same,relative viability,Everolimus + Trametinib; first compound 0.3162 µM,0.307
same,relative viability,Everolimus + Trametinib; first compound 1 µM,0.325
NCI-H1703,relative viability,Everolimus; 0.01 µM,0.455
same,relative viability,Everolimus; 0.03162 µM,0.373
same,relative viability,Everolimus; 0.1 µM,0.456
same,relative viability,Everolimus; 0.3162 µM,0.529
same,relative viability,Everolimus; 1 µM,0.63
